Literature values as cited in US8058260B2, “2′-C-methyl-ribofuranosyl cytidine prodrugs, pharmaceutical compositions and uses thereof” (XenoPort, Inc., priority 2006, dated 2011).
Read-outs that look alike come from different tables or passages of the source.

Legend:
[1] = tested on: HCV; conditions: clinical evaluation as a treatment for HCV
[2] = human, in vivo
[3] = molecular target: HCV NS5B polymerase (Hepatitis C virus genotype 1b, UniProt P26663)
HCV NS5B polymerase, sequence (P26663 2420-3010): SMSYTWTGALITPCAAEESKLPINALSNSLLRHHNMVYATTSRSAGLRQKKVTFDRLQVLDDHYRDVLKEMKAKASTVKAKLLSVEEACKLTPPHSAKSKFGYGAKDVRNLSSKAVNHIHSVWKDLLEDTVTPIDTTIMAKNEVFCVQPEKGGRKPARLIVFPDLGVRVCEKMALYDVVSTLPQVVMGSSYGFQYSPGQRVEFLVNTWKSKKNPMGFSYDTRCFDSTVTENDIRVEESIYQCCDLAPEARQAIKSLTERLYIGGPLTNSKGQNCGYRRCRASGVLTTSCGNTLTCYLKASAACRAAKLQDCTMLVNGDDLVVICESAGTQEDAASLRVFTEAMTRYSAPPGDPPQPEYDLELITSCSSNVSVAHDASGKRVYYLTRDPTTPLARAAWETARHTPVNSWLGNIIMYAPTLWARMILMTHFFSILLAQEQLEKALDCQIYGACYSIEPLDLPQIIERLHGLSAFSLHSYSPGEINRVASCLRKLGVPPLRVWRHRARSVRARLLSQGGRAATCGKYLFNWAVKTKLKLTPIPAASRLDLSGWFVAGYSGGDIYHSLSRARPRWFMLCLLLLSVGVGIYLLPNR

SMILES | gastrointestinal toxicity / side-effects (in vivo, po) | antiviral activity [1] | bioavailability [2] | gastrointestinal toxicity / side-effects (oral administration, nausea, vomiting, diarrhea in some patients) | inhibitory activity against the HCV NS5B polymerase [3]
CC(C)[C@H](N)C(=O)O[C@@H]1[C@@H](CO)O[C@@H](n2ccc(N)nc2=O)[C@]1(C)O [NM 283, 3′-O-L-valinyl ester of β-D-2′-C-methyl-ribofuranosyl cytidine] | gastrointestinal side-effects | significant antiviral activity | good bioavailability |  | 
C[C@@]1(O)[C@H](O)[C@@H](CO)O[C@H]1n1ccc(N)nc1=O [β-D-2′-C-methyl-ribofuranosyl cytidine] |  |  |  | gastrointestinal (GI) toxicity | potent inhibitory activity
